{"source": "BindingDB's records for doi:10.1021/jm00119a018", "about": "(Southern Research Institute, 1988)", "biological_target": "Bifunctional purine biosynthesis protein ATIC (Homo sapiens, UniProt P31939)", "sequence (P31939 whole entry)": "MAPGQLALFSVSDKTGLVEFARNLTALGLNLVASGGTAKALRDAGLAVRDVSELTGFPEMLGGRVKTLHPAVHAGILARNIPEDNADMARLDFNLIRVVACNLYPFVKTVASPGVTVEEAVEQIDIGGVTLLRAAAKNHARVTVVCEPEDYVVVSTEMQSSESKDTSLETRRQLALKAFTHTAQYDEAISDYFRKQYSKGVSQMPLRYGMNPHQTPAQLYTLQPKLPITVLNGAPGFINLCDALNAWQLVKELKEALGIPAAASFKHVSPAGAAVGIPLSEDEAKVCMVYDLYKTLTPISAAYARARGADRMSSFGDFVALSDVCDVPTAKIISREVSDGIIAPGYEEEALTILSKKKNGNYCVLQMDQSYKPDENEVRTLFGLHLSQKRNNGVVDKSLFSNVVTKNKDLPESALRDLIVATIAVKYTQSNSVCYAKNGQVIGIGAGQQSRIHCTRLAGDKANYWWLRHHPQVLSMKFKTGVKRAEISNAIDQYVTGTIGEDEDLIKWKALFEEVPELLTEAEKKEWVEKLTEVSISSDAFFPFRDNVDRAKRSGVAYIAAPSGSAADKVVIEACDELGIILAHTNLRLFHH", "test": "ChEBML_28408", "description": "Compound was tested for inhibition of AICAR formyltransferase", "note": "pIC50: −log10 of the molar value."}
{"smiles": "CC1c2c(nc(N)[nH]c2=O)NCC1CCc1ccc(C(=O)NC(CCC(=O)O)C(=O)O)cc1", "note": "(stereo not drawn) [(5RS, 6RS) 2-{4-[2-(2-Amino-5-methyl-4-oxo-3,4,5,6,7,8-hexahydro-pyrido[2,3-d]pyrimidin-6-yl)-ethyl]-benzoylamino}-pentanedioic acid]", "values": [{"measurement": "pIC50", "value": "< 4.70"}]}
